Organism: Rattus norvegicus
Test: DrugMatrix - Regimen: Daily Repeat
Type: toxicity, organism-based, Sprague-Dawley
Design: regimen Daily Repeat, gender Male, age 6-8 weeks
Conditions: in vivo, po, route oral GAVAGE, vehicle 100 % WATER; for ABSOLUTE BASOPHIL / ABSOLUTE EOSINOPHIL / ABSOLUTE LYMPHOCYTE / ABSOLUTE MONOCYTE / ABSOLUTE SEGMENTED NEUTROPHIL / BASOPHIL / EOSINOPHIL / ERYTHROCYTE COUNT / HEMATOCRIT / HEMOGLOBIN / LEUKOCYTE COUNT / LYMPHOCYTE / MEAN CORPUSCULAR HEMOGLOBIN / MEAN CORPUSCULAR HEMOGLOBIN CONCENTRATION / MEAN CORPUSCULAR VOLUME / MONOCYTE / NEUTROPHIL / NUCLEATED RED BLOOD CELLS / PLATELET COUNT: tissue Blood; for ALANINE AMINOTRANSFERASE / ALBUMIN / ALKALINE PHOSPHATASE / ASPARTATE AMINOTRANSFERASE / BLOOD UREA NITROGEN / CARBON DIOXIDE / CHLORIDE / CHOLESTEROL / CREATINE PHOSPHOKINASE / CREATININE / GLUCOSE / LACTATE DEHYDROGENASE / LIPASE / PHOSPHORUS / POTASSIUM / SODIUM / TOTAL BILIRUBIN / TOTAL PROTEIN / URIC ACID: tissue Plasma
[1] = 1 mg/kg, 72 h, dose level Low, time 3 day
[2] = 1 mg/kg, 120 h, dose level Low, time 5 day
[3] = 84 mg/kg, 72 h, dose level High, time 3 day
[4] = 84 mg/kg, 120 h, dose level High, time 5 day

Cc1nccn1CC1CCc2c(c3ccccc3n2C)C1=O (configuration not stated) [ONDANSETRON]
ABSOLUTE BASOPHIL [1]: 0 CELLS/uL
ABSOLUTE EOSINOPHIL [1]: 0 CELLS/uL
ABSOLUTE LYMPHOCYTE [1]: 12419.33 CELLS/uL
ABSOLUTE MONOCYTE [1]: 325.33 CELLS/uL
ABSOLUTE SEGMENTED NEUTROPHIL [1]: 1155.33 CELLS/uL
BASOPHIL [1]: 0%
EOSINOPHIL [1]: 0%
ERYTHROCYTE COUNT [1]: 5.53 x10E6/uL
HEMATOCRIT [1]: 34.87%
HEMOGLOBIN [1]: 13.27 G/DL
LEUKOCYTE COUNT [1]: 13.9 x10E3/uL
LYMPHOCYTE [1]: 89.33%
MEAN CORPUSCULAR HEMOGLOBIN [1]: 24 pg
MEAN CORPUSCULAR HEMOGLOBIN CONCENTRATION [1]: 38.07 G/DL
MEAN CORPUSCULAR VOLUME [1]: 63.03 fL
MONOCYTE [1]: 2.33%
NEUTROPHIL [1]: 8.33%
NUCLEATED RED BLOOD CELLS [1]: 0 /100WBC
PLATELET COUNT [1]: 1205.67 x10E3/uL
ALANINE AMINOTRANSFERASE [1]: 50.33 u/L
ALBUMIN [1]: 4.1 G/DL
ALKALINE PHOSPHATASE [1]: 392.33 u/L
ASPARTATE AMINOTRANSFERASE [1]: 92 u/L
BLOOD UREA NITROGEN [1]: 15.67 mg/dL
CARBON DIOXIDE [1]: 24.33 mmol/L
CHLORIDE [1]: 104 MEQ/L
CHOLESTEROL [1]: 74.33 mg/dL
CREATINE PHOSPHOKINASE [1]: 345 u/L
CREATININE [1]: 0.17 mg/dL
GLUCOSE [1]: 165.33 mg/dL
LACTATE DEHYDROGENASE [1]: 421 u/L
LIPASE [1]: 9.67 u/L
PHOSPHORUS [1]: 14.47 mg/dL
POTASSIUM [1]: 6.65 MEQ/L
SODIUM [1]: 147.47 MEQ/L
TOTAL BILIRUBIN [1]: 0.17 mg/dL
TOTAL PROTEIN [1]: 5.77 G/DL
URIC ACID [1]: 1.8 mg/dL
ABSOLUTE BASOPHIL [2]: 0 CELLS/uL
ABSOLUTE EOSINOPHIL [2]: 0 CELLS/uL
ABSOLUTE LYMPHOCYTE [2]: 15703.33 CELLS/uL
ABSOLUTE MONOCYTE [2]: 57.67 CELLS/uL
ABSOLUTE SEGMENTED NEUTROPHIL [2]: 1439 CELLS/uL
BASOPHIL [2]: 0%
EOSINOPHIL [2]: 0%
ERYTHROCYTE COUNT [2]: 5.66 x10E6/uL
HEMATOCRIT [2]: 36.67%
HEMOGLOBIN [2]: 14.17 G/DL
LEUKOCYTE COUNT [2]: 17.2 x10E3/uL
LYMPHOCYTE [2]: 91.33%
MEAN CORPUSCULAR HEMOGLOBIN [2]: 25.07 pg
MEAN CORPUSCULAR HEMOGLOBIN CONCENTRATION [2]: 38.6 G/DL
MEAN CORPUSCULAR VOLUME [2]: 64.9 fL
MONOCYTE [2]: 0.33%
NEUTROPHIL [2]: 8.33%
NUCLEATED RED BLOOD CELLS [2]: 0 /100WBC
PLATELET COUNT [2]: 1456 x10E3/uL
ALANINE AMINOTRANSFERASE [2]: 55 u/L
ALBUMIN [2]: 4.43 G/DL
ALKALINE PHOSPHATASE [2]: 362 u/L
ASPARTATE AMINOTRANSFERASE [2]: 77.33 u/L
BLOOD UREA NITROGEN [2]: 17 mg/dL
CARBON DIOXIDE [2]: 29 mmol/L
CHLORIDE [2]: 100.33 MEQ/L
CHOLESTEROL [2]: 72 mg/dL
CREATINE PHOSPHOKINASE [2]: 162.67 u/L
CREATININE [2]: 0.18 mg/dL
GLUCOSE [2]: 160.33 mg/dL
LACTATE DEHYDROGENASE [2]: 160.67 u/L
LIPASE [2]: 10.33 u/L
PHOSPHORUS [2]: 14.4 mg/dL
POTASSIUM [2]: 6.83 MEQ/L
SODIUM [2]: 146.07 MEQ/L
TOTAL BILIRUBIN [2]: 0.2 mg/dL
TOTAL PROTEIN [2]: 6.17 G/DL
URIC ACID [2]: 1.7 mg/dL
ABSOLUTE BASOPHIL [3]: 0 CELLS/uL
ABSOLUTE EOSINOPHIL [3]: 113.33 CELLS/uL
ABSOLUTE LYMPHOCYTE [3]: 15932.67 CELLS/uL
ABSOLUTE MONOCYTE [3]: 298.67 CELLS/uL
ABSOLUTE SEGMENTED NEUTROPHIL [3]: 1422 CELLS/uL
BASOPHIL [3]: 0%
EOSINOPHIL [3]: 0.67%
ERYTHROCYTE COUNT [3]: 5.63 x10E6/uL
HEMATOCRIT [3]: 35.6%
HEMOGLOBIN [3]: 14.17 G/DL
LEUKOCYTE COUNT [3]: 17.77 x10E3/uL
LYMPHOCYTE [3]: 90%
MEAN CORPUSCULAR HEMOGLOBIN [3]: 25.3 pg
MEAN CORPUSCULAR HEMOGLOBIN CONCENTRATION [3]: 39.83 G/DL
MEAN CORPUSCULAR VOLUME [3]: 63.53 fL
MONOCYTE [3]: 1.67%
NEUTROPHIL [3]: 7.67%
NUCLEATED RED BLOOD CELLS [3]: 0 /100WBC
PLATELET COUNT [3]: 1296 x10E3/uL
ALANINE AMINOTRANSFERASE [3]: 62.67 u/L
ALBUMIN [3]: 4.27 G/DL
ALKALINE PHOSPHATASE [3]: 366.67 u/L
ASPARTATE AMINOTRANSFERASE [3]: 100.67 u/L
BLOOD UREA NITROGEN [3]: 14.67 mg/dL
CARBON DIOXIDE [3]: 26.67 mmol/L
CHLORIDE [3]: 101.33 MEQ/L
CHOLESTEROL [3]: 73.67 mg/dL
CREATINE PHOSPHOKINASE [3]: 312.67 u/L
CREATININE [3]: 0.28 mg/dL
GLUCOSE [3]: 150 mg/dL
LACTATE DEHYDROGENASE [3]: 488.67 u/L
LIPASE [3]: 9.67 u/L
PHOSPHORUS [3]: 13.83 mg/dL
POTASSIUM [3]: 7.1 MEQ/L
SODIUM [3]: 145.17 MEQ/L
TOTAL BILIRUBIN [3]: 0.17 mg/dL
TOTAL PROTEIN [3]: 5.87 G/DL
URIC ACID [3]: 1.77 mg/dL
ABSOLUTE BASOPHIL [4]: 0 CELLS/uL
ABSOLUTE EOSINOPHIL [4]: 0 CELLS/uL
ABSOLUTE LYMPHOCYTE [4]: 12972 CELLS/uL
ABSOLUTE MONOCYTE [4]: 0 CELLS/uL
ABSOLUTE SEGMENTED NEUTROPHIL [4]: 828 CELLS/uL
BASOPHIL [4]: 0%
EOSINOPHIL [4]: 0%
ERYTHROCYTE COUNT [4]: 5.39 x10E6/uL
HEMATOCRIT [4]: 33.4%
HEMOGLOBIN [4]: 13.9 G/DL
LEUKOCYTE COUNT [4]: 13.8 x10E3/uL
LYMPHOCYTE [4]: 94%
MEAN CORPUSCULAR HEMOGLOBIN [4]: 25.8 pg
MEAN CORPUSCULAR HEMOGLOBIN CONCENTRATION [4]: 41.6 G/DL
MEAN CORPUSCULAR VOLUME [4]: 61.9 fL
MONOCYTE [4]: 0%
NEUTROPHIL [4]: 6%
NUCLEATED RED BLOOD CELLS [4]: 0 /100WBC
PLATELET COUNT [4]: 1460 x10E3/uL
ALANINE AMINOTRANSFERASE [4]: 63 u/L
ALBUMIN [4]: 4.2 G/DL
ALKALINE PHOSPHATASE [4]: 265 u/L
ASPARTATE AMINOTRANSFERASE [4]: 62 u/L
BLOOD UREA NITROGEN [4]: 20 mg/dL
CARBON DIOXIDE [4]: 30 mmol/L
CHLORIDE [4]: 103 MEQ/L
CHOLESTEROL [4]: 69 mg/dL
CREATINE PHOSPHOKINASE [4]: 151 u/L
CREATININE [4]: 0.29 mg/dL
GLUCOSE [4]: 150 mg/dL
LACTATE DEHYDROGENASE [4]: 89 u/L
LIPASE [4]: 10 u/L
PHOSPHORUS [4]: 11.8 mg/dL
POTASSIUM [4]: 6.81 MEQ/L
SODIUM [4]: 145.9 MEQ/L
TOTAL BILIRUBIN [4]: 0.1 mg/dL
TOTAL PROTEIN [4]: 6.2 G/DL
URIC ACID [4]: 1.4 mg/dL

Reference: ChEMBL document CHEMBL3885881, “DrugMatrix”
